Key:
[1] = Cytotoxicity against mouse LLC cells after 24 hrs by resazurin assay; type: functional, cell-based, Lewis lung carcinoma
[2] = Cytotoxicity against mouse LLC cells after 72 hrs by resazurin assay; type: functional, cell-based; details: Lewis lung carcinoma
[3] = Binding affinity to 7 gram of hydroxyapatite at 246 mg after 24 hrs by UV-spectrophotometer analysis; type: physicochemical
[4] = Binding affinity to 5 gram of hydroxyapatite at 246 mg after 24 hrs by UV-spectrophotometer analysis; type: physicochemical
[5] = Binding affinity to 7 gram of hydroxyapatite at 246 mg followed by acidified with hydrochloric acid at pH 2 measured after 24 hrs by UV-spectrophotometer analysis; type: physicochemical; details: pH 2, 24 h
[6] = Chemical stability of the compound in hydrochloric acid at pH 2; type: physicochemical; details: buffer
[7] = tested on: HL-60(TB); assay: Growth inhibition of human HL-60(TB) cells assessed as cell growth at 10 uM after 48 hrs by SRB assay relative to control; type: functional; details: HL-60, 48 h, read-out: Activity
[8] = tested on: EKVX; assay: Growth inhibition of human EKVX cells assessed as cell growth at 10 uM after 48 hrs by SRB assay relative to control; type: functional; details: read-out: Activity
[9] = tested on: HOP-62; assay: Growth inhibition of human HOP62 cells assessed as cell growth at 10 uM after 48 hrs by SRB assay relative to control; type: functional; details: HOP-62, 48 h, read-out: Activity
[10] = tested on: NCI-H322M; assay: Growth inhibition of human NCI-H322M cells assessed as cell growth at 10 uM after 48 hrs by SRB assay relative to control; type: functional; details: read-out: Activity
[11] = tested on: SF-268; assay: Growth inhibition of human SF268 cells assessed as cell growth at 10 uM after 48 hrs by SRB assay relative to control; type: functional; details: SF-268, 48 h, read-out: Activity
[12] = tested on: SF-539; assay: Growth inhibition of human SF539 cells assessed as cell growth at 10 uM after 48 hrs by SRB assay relative to control; type: functional; details: SF-539, 48 h, read-out: Activity
[13] = tested on: SNB-75; assay: Growth inhibition of human SNB75 cells assessed as cell growth at 10 uM after 48 hrs by SRB assay relative to control; type: functional; details: SNB-75, 48 h, read-out: Activity
[14] = tested on: Malme-3M; assay: Growth inhibition of human MALME-3M cells assessed as cell growth at 10 uM after 48 hrs by SRB assay relative to control; type: functional; details: read-out: Activity
[15] = tested on: MDA-MB-435; assay: Growth inhibition of human MDA-MB-435 cells assessed as cell growth at 10 uM after 48 hrs by SRB assay relative to control; type: functional; details: MDA-MB-435, 48 h, read-out: Activity
[16] = tested on: OVCAR-3; assay: Growth inhibition of human OVCAR3 cells assessed as cell growth at 10 uM after 48 hrs by SRB assay relative to control; type: functional; details: OVCAR-3, 48 h, read-out: Activity
[17] = tested on: CAKI-1; assay: Growth inhibition of human Caki1 cells assessed as cell growth at 10 uM after 48 hrs by SRB assay relative to control; type: functional; details: CAKI-1, 48 h, read-out: Activity
[18] = tested on: RAW264.7; assay: Selectivity ratio of IC50 for mouse RAW264.7 cells to IC50 for mouse LLC cells
[19] = tested on: RAW264.7
Description: Cytotoxicity against mouse RAW264.7 cells after 24 hrs by resazurin assay

[20] = tested on: RAW264.7; assay: cells; details: Mus musculus, RAW264.7, 72 h
Description: Cytotoxicity against mouse RAW264.7 cells after 72 hrs by resazurin assay

[21] = Mus musculus, Lewis lung carcinoma, 24 h, read-out: IC50

In the case of NCCCC(O)(P(=O)(O)O)P(=O)(O)O, the IC50 [1, 21] is reported as 430 nM and the IC50 [2] is reported as 2620 nM.

Work on O=c1nc(NCCCC(O)(P(=O)([O-])O)P(=O)([O-])O)c(F)cn1[C@H]1C[C@H](O)[C@@H](CO)O1.[Na+].[Na+] yielded an Activity [3] of 87%, an Activity [4] of 41% and an Activity [5] of 74%. The Stability [6] was “Stable”, the growth at 10 µM [7] was 62% and the growth at 10 µM [8] was 82%. The growth at 10 µM [9] was 93%, the growth at 10 µM [10] was 89% and the growth at 10 µM [11] was 87%. The growth at 10 µM [12] was 95%, the growth at 10 µM [13] was 87% and the growth at 10 µM [14] was 89%. For the same compound, the growth at 10 µM [15] was 87%, the growth at 10 µM [16] was 88% and the growth at 10 µM [17] was 79%. For the same compound, the IC50 ([1]; lewis lung carcinoma) was “Not Active”, the IC50 [2] was 150 nM and the “Ratio IC50” value [18] was 167. The IC50 [19] was “Not Active” and the IC50 [20] was 25000 nM.

Work on O=c1[nH]c(=O)n([C@H]2C[C@H](O)[C@@H](CO)O2)cc1F [FLOXURIDINE] yielded an Activity [3] of 15%, an IC50 [1, 21] of 14200 nM and an IC50 [2] of 2000 nM. The IC50 [19] was “Not Active” and the IC50 [20] was 30000 nM.

From ChEMBL document CHEMBL1777702, “N⁴-[Alkyl-(hydroxyphosphono)phosphonate]-cytidine-new drugs covalently linking antimetabolites (5-FdU, araU or AZT) with bone-targeting bisphosphonates (alendronate or pamidronate)” (Bioorg Med Chem, 2011)
